From patent US20250154109A1, “SODIUM CHANNEL BLOCKING COMPOUNDS, DERIVATIVES THEREOF, AND METHODS OF THEIR USE” (LATIGO BIOTHERAPEUTICS, INC, priority 2022, published 2025)
Where two headings read alike, the source gives them in different places.

Target: human Nav1.8 (Homo sapiens, UniProt Q9Y5Y9)
Assay: SyncroPatch384PE assay (automated patch clamp)
Format: cell-based
Details: human Nav1.8/b3 CHO cells
[1] = inactivated state block (P2 measurement), read-out: P2 IC50
[2] = resting state block (P1 measurement), read-out: P1 IC50

human Nav1.8, sequence (Q9Y5Y9 whole entry): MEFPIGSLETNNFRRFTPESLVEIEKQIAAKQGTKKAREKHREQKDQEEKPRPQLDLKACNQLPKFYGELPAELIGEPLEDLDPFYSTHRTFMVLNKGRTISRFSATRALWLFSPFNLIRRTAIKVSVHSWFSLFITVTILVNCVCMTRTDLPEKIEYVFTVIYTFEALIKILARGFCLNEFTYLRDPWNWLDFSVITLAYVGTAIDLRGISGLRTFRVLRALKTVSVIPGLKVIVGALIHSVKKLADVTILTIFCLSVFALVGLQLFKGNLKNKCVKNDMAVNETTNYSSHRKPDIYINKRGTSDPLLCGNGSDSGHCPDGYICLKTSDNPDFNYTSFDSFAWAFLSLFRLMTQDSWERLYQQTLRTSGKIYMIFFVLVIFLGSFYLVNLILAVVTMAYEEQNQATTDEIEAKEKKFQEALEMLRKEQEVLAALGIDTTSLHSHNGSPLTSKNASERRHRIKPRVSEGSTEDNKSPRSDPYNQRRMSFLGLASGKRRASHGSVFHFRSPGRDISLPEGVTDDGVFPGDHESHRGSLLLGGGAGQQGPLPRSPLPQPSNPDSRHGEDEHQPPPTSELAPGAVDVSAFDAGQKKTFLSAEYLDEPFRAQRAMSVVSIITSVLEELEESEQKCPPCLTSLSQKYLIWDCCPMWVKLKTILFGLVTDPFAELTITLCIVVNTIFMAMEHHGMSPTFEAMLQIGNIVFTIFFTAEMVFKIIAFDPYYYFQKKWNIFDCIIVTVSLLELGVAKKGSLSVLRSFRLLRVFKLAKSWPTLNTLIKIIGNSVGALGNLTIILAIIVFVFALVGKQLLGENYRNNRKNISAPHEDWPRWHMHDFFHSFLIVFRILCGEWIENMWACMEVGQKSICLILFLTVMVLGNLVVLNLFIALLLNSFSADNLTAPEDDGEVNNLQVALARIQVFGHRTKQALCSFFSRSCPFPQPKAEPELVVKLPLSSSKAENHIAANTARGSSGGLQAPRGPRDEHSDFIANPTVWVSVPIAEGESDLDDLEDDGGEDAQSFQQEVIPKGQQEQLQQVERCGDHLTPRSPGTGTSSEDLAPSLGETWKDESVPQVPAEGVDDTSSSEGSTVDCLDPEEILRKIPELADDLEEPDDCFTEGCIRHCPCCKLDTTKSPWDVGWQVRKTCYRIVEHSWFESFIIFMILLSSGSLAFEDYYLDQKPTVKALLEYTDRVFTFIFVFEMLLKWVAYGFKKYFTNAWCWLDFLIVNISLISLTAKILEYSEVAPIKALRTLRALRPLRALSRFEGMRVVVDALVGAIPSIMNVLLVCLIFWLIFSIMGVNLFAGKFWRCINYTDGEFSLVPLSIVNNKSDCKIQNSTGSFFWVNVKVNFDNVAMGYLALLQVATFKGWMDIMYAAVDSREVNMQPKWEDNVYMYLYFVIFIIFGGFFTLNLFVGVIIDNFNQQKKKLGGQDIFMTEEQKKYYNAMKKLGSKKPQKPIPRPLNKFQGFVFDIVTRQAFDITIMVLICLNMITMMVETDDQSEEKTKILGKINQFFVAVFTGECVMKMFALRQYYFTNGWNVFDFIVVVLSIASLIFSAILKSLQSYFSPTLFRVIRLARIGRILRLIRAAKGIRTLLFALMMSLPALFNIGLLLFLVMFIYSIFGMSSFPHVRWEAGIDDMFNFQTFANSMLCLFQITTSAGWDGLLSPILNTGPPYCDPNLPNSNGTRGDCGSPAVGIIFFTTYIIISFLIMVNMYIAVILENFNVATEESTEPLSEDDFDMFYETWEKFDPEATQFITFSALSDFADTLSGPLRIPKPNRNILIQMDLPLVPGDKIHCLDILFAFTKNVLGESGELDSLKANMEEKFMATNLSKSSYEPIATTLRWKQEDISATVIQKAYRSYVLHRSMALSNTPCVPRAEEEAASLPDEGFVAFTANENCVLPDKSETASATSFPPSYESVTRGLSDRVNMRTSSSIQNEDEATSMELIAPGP

Compound	IC50 [1] [nM]	IC50 [2] [nM]
Cc1c(Br)c(C(F)(F)F)nc(N2CCCC(F)(F)CC2)c1C(=O)Nc1cccc([S@](C)(=N)=O)c1 [Example 130, (R)-5-bromo-2-(4,4-difluoroazepan-1-yl)-4-methyl-N-(3-(S-methylsulfonimidoyl)phenyl)-6-(trifluoromethyl)nicotinamide]	≤ 5	≤ 5
Cc1c(C(=O)Nc2cccc([S@](C)(=N)=O)c2)c(N2CCCC(F)(F)CC2)nc(C(F)(F)F)c1-c1ccc(C#N)cc1 [Example 131, (R)-5-(4-cyanophenyl)-2-(4,4-difluoroazepan-1-yl)-4-methyl-N-(3-(S-methylsulfonimidoyl)phenyl)-6-(trifluoromethyl)nicotinamide]	≤ 5	≤ 5
Cc1c(-c2cnn(C)c2)cnc(N2CCCC(F)(F)CC2)c1C(=O)NC12CC(C(N)=O)(C1)C2 [Example 132, N-(3-carbamoylbicyclo[1.1.1]pentan-1-yl)-2-(4,4-difluoroazepan-1-yl)-4-methyl-5-(1-methyl-1H-pyrazol-4-yl)nicotinamide]	> 200	> 200
Cc1c(-c2ccc(C#N)cc2)cnc(N2CCCC(F)(F)CC2)c1C(=O)NC12CC(C(N)=O)(C1)C2 [Example 134, N-(3-carbamoylbicyclo[1.1.1]pentan-1-yl)-5-(4-cyanophenyl)-2-(4,4-difluoroazepan-1-yl)-4-methylnicotinamide]	> 200	> 200
Cc1nc(C(F)(F)F)nc(N2CCCC(F)(F)CC2)c1C(=O)Nc1cccc([S@](C)(=N)=O)c1 [Example 135, (R)-4-(4,4-difluoroazepan-1-yl)-6-methyl-N-(3-(S-methylsulfonimidoyl)phenyl)-2-(trifluoromethyl)pyrimidine-5-carboxamide]	5 to 50	5 to 50
Cc1c(N2CC3(COC3)C2)nnc(N2CCCC(F)(F)CC2)c1C(=O)Nc1cccc([S@](C)(=N)=O)c1 [Example 140, (R)-3-(4,4-difluoroazepan-1-yl)-5-methyl-N-(3-(S-methylsulfonimidoyl)phenyl)-6-(2-oxa-6-azaspiro[3.3]heptan-6-yl)pyridazine-4-carboxamide]	> 200	> 200
Cc1c(-c2cnn(C)c2)nnc(N2CCCC(F)(F)CC2)c1C(=O)NC12CC(C(N)=O)(C1)C2 [Example 141, N-(3-carbamoylbicyclo[1.1.1]pentan-1-yl)-3-(4,4-difluoroazepan-1-yl)-5-methyl-6-(1-methyl-1H-pyrazol-4-yl)pyridazine-4-carboxamide]	≤ 5	≤ 5
Cc1c(-c2cnn(C)c2)cnc(N2CCCC(F)(F)CC2)c1C(=O)NC12CC(C(=O)O)(C1)C2 [Example 142, 3-(2-(4,4-difluoroazepan-1-yl)-4-methyl-5-(1-methyl-1H-pyrazol-4-yl)nicotinamido)bicyclo[1.1.1]pentane-1-carboxylic acid]	≤ 5	≤ 5
Cc1nc(C(F)(F)F)nc(N2CCCC(F)(F)CC2)c1C(=O)Nc1cccc([S@@](C)(=N)=O)c1 [Example 143, (S)-4-(4,4-difluoroazepan-1-yl)-6-methyl-N-(3-(S-methylsulfonimidoyl)phenyl)-2-(trifluoromethyl)pyrimidine-5-carboxamide]	50 to 100	50 to 100
Cc1c(Br)cnc(N2CCCC(F)(F)CC2)c1C(=O)Nc1cccc([S@@](C)(=N)=O)c1 [Example 145, (S)-5-bromo-2-(4,4-difluoroazepan-1-yl)-4-methyl-N-(3-(S-methylsulfonimidoyl)phenyl)nicotinamide]	≤ 5	≤ 5
Cc1nn(C)cc1-c1cnc(N2CCCC(F)(F)CC2)c(C(=O)Nc2cccc([S@](C)(=N)=O)c2)c1C [Example 146, (R)-2-(4,4-difluoroazepan-1-yl)-5-(1,3-dimethyl-1H-pyrazol-4-yl)-4-methyl-N-(3-(S-methylsulfonimidoyl)phenyl)nicotinamide]	> 200	> 200
Cc1c(-c2cnco2)cnc(N2CCCC(F)(F)CC2)c1C(=O)Nc1cccc([S@](C)(=N)=O)c1 [Example 147, (R)-2-(4,4-difluoroazepan-1-yl)-4-methyl-N-(3-(S-methylsulfonimidoyl)phenyl)-5-(oxazol-5-yl)nicotinamide]	5 to 50	5 to 50
Cc1c(N2CC(F)(F)C2)cnc(N2CCCC(F)(F)CC2)c1C(=O)Nc1cccc([S@](C)(=N)=O)c1 [Example 149, (R)-2-(4,4-difluoroazepan-1-yl)-5-(3,3-difluoroazetidin-1-yl)-4-methyl-N-(3-(S-methylsulfonimidoyl)phenyl)nicotinamide]	5 to 50	5 to 50
Cc1nc(-c2cnn(C)c2)nc(N2CCCC(F)(F)CC2)c1C(=O)Nc1cccc([S@](C)(=N)=O)c1 [Example 150, (R)-4-(4,4-difluoroazepan-1-yl)-6-methyl-2-(1-methyl-1H-pyrazol-4-yl)-N-(3-(S-methylsulfonimidoyl)phenyl)pyrimidine-5-carboxamide]	100 to 200	100 to 200
Cc1cc(-c2cnn(C)c2)nc(N2CCCC(F)(F)CC2)c1C(=O)Nc1cccc([S@](C)(=N)=O)c1 [Example 151, (R)-2-(4,4-difluoroazepan-1-yl)-4-methyl-6-(1-methyl-1H-pyrazol-4-yl)-N-(3-(S-methylsulfonimidoyl)phenyl)nicotinamide]	100 to 200	100 to 200

Results, then the compound that gave them:

IC50 [1] [nM]	IC50 [2] [nM]	Compound
≤ 5	≤ 5	Cc1c(C(=O)Nc2cccc([S@](C)(=N)=O)c2)c(N2CCCC(F)(F)CC2)nc(C(F)(F)F)c1-c1cnn(C)c1 [Example 133, (R)-2-(4,4-difluoroazepan-1-yl)-4-methyl-5-(1-methyl-1H-pyrazol-4-yl)-N-(3-(S-methylsulfonimidoyl)phenyl)-6-(trifluoromethyl)nicotinamide]
≤ 5	≤ 5	Cc1c(C#N)cnc(N2CCCC(F)(F)CC2)c1C(=O)NC12CC(C(N)=O)(C1)C2 [Example 136, N-(3-carbamoylbicyclo[1.1.1]pentan-1-yl)-5-cyano-2-(4,4-difluoroazepan-1-yl)-4-methylnicotinamide]
100 to 200	> 200	Cc1c(C#N)nnc(N2CCCC(F)(F)CC2)c1C(=O)Nc1cccc([S@](C)(=N)=O)c1 [Example 139, (R)-6-cyano-3-(4,4-difluoroazepan-1-yl)-5-methyl-N-(3-(S-methylsulfonimidoyl)phenyl)pyridazine-4-carboxamide]
> 200	> 200	Cc1c(-c2cn[nH]c2)cnc(N2CCCC(F)(F)CC2)c1C(=O)Nc1cccc([S@](C)(=N)=O)c1 [Example 144, (R)-2-(4,4-difluoroazepan-1-yl)-4-methyl-N-(3-(S-methylsulfonimidoyl)phenyl)-5-(1H-pyrazol-4-yl)nicotinamide]
5 to 50	5 to 50	Cc1cc(C#N)nc(N2CCCC(F)(F)CC2)c1C(=O)Nc1cccc([S@](C)(=N)=O)c1 [Example 148, (R)-6-cyano-2-(4,4-difluoroazepan-1-yl)-4-methyl-N-(3-(S-methylsulfonimidoyl)phenyl)nicotinamide]
> 200	> 200	Cc1n[nH]c(C)c1-c1cnc(N2CCCC(F)(F)CC2)c(C(=O)Nc2cccc([S@](C)(=N)=O)c2)c1C [Example 152, (R)-2-(4,4-difluoroazepan-1-yl)-5-(3,5-dimethyl-1H-pyrazol-4-yl)-4-methyl-N-(3-(S-methylsulfonimidoyl)phenyl)nicotinamide]
